Consider nine compounds from patent publication US9822099B2, “Triazole derivatives” (priority 2013, dated 2017).

SMILES strings stand for the structures. Marks after values point to notes of the source that are not given here.

The test system of data set [1] is Puccinia recondita. Put plainly: Example B: in vivo preventive test on Puccinia recondita (brown rust on wheat). Conditions: wheat plants, preventive spray, evaluated 11 days after inoculation. As to the method:
The young plants of wheat are treated by spraying the active ingredient prepared as described above. Control plants are treated only with an aqueous solution of acetone/Dimethyl sulfoxide/Tween®. After 24 hours, the plants are contaminated by spraying the leaves with an aqueous suspension of Puccinia recondita spores.

Data set [2] deals with Pyrenophora teres. The experiment in a line: Example C: in vivo preventive test on Pyrenophora teres (net blotch on barley). Conditions: barley plants, preventive spray, evaluated 14 days after inoculation. The method, then: The young plants of barley are treated by spraying the active ingredient prepared as described above. Control plants are treated only with an aqueous solution of acetone/Dimethyl sulfoxide/Tween®. After 24 hours, the plants are contaminated by spraying the leaves with an aqueous suspension of Pyrenophora teres spores.

Data set [3] concerns Septoria tritici. The experiment in a line: Example D: in vivo preventive test on Septoria tritici (leaf spot on wheat). Conditions: wheat plants, preventive spray, evaluated 24 days after inoculation. As to the method:
The young plants of wheat are treated by spraying the active ingredient prepared as described above. Control plants are treated only with an aqueous solution of acetone/Dimethyl sulfoxide/Tween®. After 24 hours, the plants are contaminated by spraying the leaves with an aqueous suspension of Septoria tritici spores.

For data set [4], the system named is Sphaerotheca fuliginea. The experiment in a line: Example E: in vivo preventive test on Sphaerotheca fuliginea (powdery mildew on cucurbits). Conditions: gherkin plants, preventive spray, evaluated 15 days after inoculation. The method, then: The young plants of gherkin are treated by spraying the active ingredient prepared as described above. Control plants are treated only with an aqueous solution of acetone/Dimethyl sulfoxide/Tween®. After 24 hours, the plants are contaminated by spraying the leaves with an aqueous suspension of Sphaerotheca fuliginea spores.

Data set [5] has as its system Uromyces appendiculatus. Put plainly: Example F: in vivo preventive test on Uromyces appendiculatus (bean rust). To be noted: bean plants, preventive spray, evaluated 11 days after inoculation. As to the method:
The young plants of bean are treated by spraying the active ingredient prepared as described above. Control plants are treated only with an aqueous solution of acetone/Dimethyl sulfoxide/Tween®. After 24 hours, the plants are contaminated by spraying the leaves with an aqueous suspension of Uromyces appendiculatus spores.

For data set [6], the system named is Blumeria graminis f. sp. hordei. The experiment in a line: Example G: Blumeria test (barley)/preventive. The format is in vivo. To be noted: 500 ppm of active ingredient, preventive, evaluated 7 days after inoculation. As to the method:
(§1) Solvent: 49 parts by weight of N,N-dimethylacetamide Emulsifier: 1 part by weight of alkylaryl polyglycol ether To produce a suitable preparation of active compound, 1 part by weight of active compound or active compound combination is mixed with the stated amounts of solvent and emulsifier, and the concentrate is diluted with water to the desired concentration. To test for preventive activity, young plants are sprayed with the preparation of active compound or active compound combination at the stated rate of application. After the spray coating has been dried, the plants are dusted with spores of Blumeria graminis f. sp. hordei.

The test system of data set [7] is Fusarium graminearum. In kind it is in vivo. Conditions: 500 ppm of active ingredient; barley, preventive; evaluated 5 days after inoculation.
Data set [8] relates to Leptosphaeria nodorum. Put plainly: Example K: Leptosphaeria nodorum test (wheat)/preventive. The format is in vivo. To be noted: 500 ppm of active ingredient, preventive, evaluated 8 days after inoculation. The method, then: as §1, with “sprayed” for “dusted”, “a spore suspension” for “spores”, “Leptosphaeria nodorum.” for “Blumeria graminis f. sp. hordei.”
Data set [9] relates to Phakopsora pachyrhizi. Put plainly: Example L: Phakopsora test (soybeans)/preventive. In kind it is in vivo. Conditions: preventive, evaluated 7 days after inoculation.
For data set [10], the system named is Venturia inaequalis. Put plainly: Example O: Venturia test (apples)/preventive. The format is in vivo. Conditions: 100 ppm of active ingredient, preventive, evaluated 10 days after inoculation. As to the method: Solvent: 24.5 parts by weight of acetone • 24.5 parts by weight of dimethylacetamide Emulsifier: 1 part by weight of alkylaryl polyglycol ether To produce a suitable preparation of active compound, 1 part by weight of active compound is mixed with the stated amounts of solvent and emulsifier, and the concentrate is diluted with water to the desired concentration. To test for preventive activity, young plants are sprayed with the preparation of active compound at the stated rate of application.

For data set [11] the following is noted: pH 2.7.
The subject of data set [12] is Botrytis cinerea. The experiment in a line: Example A: in vivo preventive test on Botrytis cinerea (grey mould). To be noted: gherkin plants, preventive spray, evaluated 4 to 5 days after inoculation. The method, then: The young plants of gherkin are treated by spraying the active ingredient prepared as described above. Control plants are treated only with an aqueous solution of acetone/Dimethyl sulfoxide/Tween®. After 24 hours, the plants are contaminated by spraying the leaves with an aqueous suspension of Botrytis cinerea spores.

Data set [13] relates to Fusarium nivale (var. majus). The experiment in a line: Example J: Fusarium nivale (var. majus)-test (wheat)/preventive. The format is in vivo. Conditions: 500 ppm of active ingredient, preventive, evaluated 5 days after inoculation. The method, then:
(§2) Solvent: 49 parts by weight of N,N-dimethylacetamide
(§3) Emulsifier: 1 part by weight of alkylaryl polyglycol ether
(§4) To produce a suitable preparation of active compound, 1 part by weight of active compound or active compound combination is mixed with the stated amounts of solvent and emulsifier, and the concentrate is diluted with water to the desired concentration.
To test for preventive activity, young plants are sprayed with the preparation of active compound or active compound combination at the stated rate of application.
After the spray coating has been dried, the plants are slightly injured by using a sandblast and afterwards they are sprayed with a conidia suspension of Fusarium nivale (var. majus).
The plants are placed in the greenhouse under a translucent incubation cabinet at a temperature of approximately 10° C. and a relative atmospheric humidity of approximately 100%.
(§5) The test is evaluated 5 days after the inoculation. 0% means an efficacy which corresponds to that of the untreated control, while an efficacy of 100% means that no disease is observed.

In data set [14] the test system is Pyricularia oryzae. In kind it is in vivo. Conditions: 500 ppm of active ingredient; rice, preventive; evaluated 8 days after inoculation.
The subject of data set [15] is Fusarium culmorum. Put plainly: Example H: Fusarium culmorum-test (wheat)/curative. In kind it is in vivo. Conditions: 500 ppm of active ingredient, curative, evaluated 5 days after inoculation. The method, then:
as §2, §3, §4
To test for curative activity, young plants are slightly injured by using a sandblast and afterwards they are sprayed with a conidia suspension of Fusarium culmorum and placed for 24 hours in a greenhouse under a translucent incubation cabinet at a temperature of approximately 22° C. and a relative atmospheric humidity of approximately 100% and are subsequently sprayed with the preparation of active compound at the stated rate of application.
After the spray coating has been dried, the plants remain in the greenhouse under translucent incubation cloches at a temperature of approximately 22° C. and a relative atmospheric humidity of approximately 100%.
as §5

Regarding `OC(CCc1ccc(Cl)cc1)(Cc1ccncc1Cl)Cn1cncn1` (racemic) [Example I-69], the Eff. % in data set [1] (500 ppm of active ingredient) is 98%; in data set [2] (500 ppm of active ingredient), 93%; in [3] (500 ppm of active ingredient), 100%; in data set [4] (500 ppm of active ingredient) it was 100%; in data set [5] (500 ppm of active ingredient), 100%; in [6], 100%. The Eff. % in data set [7] was determined as 71%; in data set [8], 89%; in [9] (100 ppm of active ingredient) it was 91%; in data set [10] it was 100%. Also, the LogP in data set [11] was 2.40^[a].
`CC(C)(F)C(O)(Cc1ccncc1Cl)Cn1cncn1` (racemic) [Example I-76]: the Eff. % in data set [12] (500 ppm of active ingredient) is 100%; in data set [1] (500 ppm of active ingredient), 100%; in data set [2] (500 ppm of active ingredient) it was 79%; in [3] (500 ppm of active ingredient), 100%; in [4] (500 ppm of active ingredient) it was 100%; in data set [5] (500 ppm of active ingredient), 100%. In addition, the Eff. % is recorded as 100% in [6]; 86% in [7]; 100% in [13]; 100% in [9] (100 ppm of active ingredient); 71% in data set [14]; 74% in data set [10]. Moreover, the LogP in [11] is 1.20^[a].
Take `OC(Cc1ccnc(Cl)c1Cl)(Cn1cncn1)C1(Cl)CC1` (racemic) [Example I-82]: the Eff. % in data set [12] (500 ppm of active ingredient) was found to be 100%; in [1] (500 ppm of active ingredient), 98%; in data set [2] (500 ppm of active ingredient), 97%; in data set [3] (500 ppm of active ingredient), 100%; in data set [4] (500 ppm of active ingredient), 100%; in data set [5] (500 ppm of active ingredient), 100%. In addition, the Eff. % in data set [6], in data set [7], in data set [13], in data set [8], in data set [9] (100 ppm of active ingredient) and in [14] was 100% throughout. In addition, in data set [10], the Eff. % is 95%. For the same compound, in data set [11], the LogP is 2.39^[a].
`OC(Cc1ccncc1F)(Cn1cncn1)C1(F)CC1` (stereo not shown) [Example I-19]: the Eff. % was 100% in [12] (100 ppm of active ingredient); 88% in data set [1] (100 ppm of active ingredient); 75% in [2] (100 ppm of active ingredient); 75% in [3] (100 ppm of active ingredient); 100% in data set [4] (100 ppm of active ingredient); 98% in data set [5] (100 ppm of active ingredient). Also, the Eff. % in data set [6] was 100%; in data set [15], 100%; in data set [7], 100%; in data set [13], 100%; in data set [8] it was 100%; in [9] (10 ppm of active ingredient), 96%. In addition, the Eff. % in [14] came to 100%. Besides, in data set [11], the LogP was 0.91^[a].
Regarding `OC(Cc1cccc(Cl)n1)(Cn1cncn1)C1(Cl)CC1` (stereo not shown) [Example I-29], the Eff. % in data set [12] (500 ppm of active ingredient) was found to be 94%; in data set [1] (500 ppm of active ingredient), 97%; in [2] (500 ppm of active ingredient), 95%; in [3] (500 ppm of active ingredient), 100%; in data set [4] (500 ppm of active ingredient), 100%; in [5] (500 ppm of active ingredient) it was 100%. Moreover, the Eff. % in data set [6] is 100%; in [15] it was 100%; in data set [7] it was 100%; in data set [13], 100%; in data set [8], 100%; in data set [14], 70%. In data set [11], the LogP is 2.18^[a].
Take `OC(Cc1ccnc(Cl)c1)(Cn1cncn1)C1(Cl)CC1` (stereo not shown) [Example I-39]: the Eff. % in data set [12] (500 ppm of active ingredient) stood at 99%; in data set [1] (500 ppm of active ingredient), 97%; in [2] (500 ppm of active ingredient), 100%; in data set [3] (500 ppm of active ingredient) it was 100%; in data set [4] (500 ppm of active ingredient) it was 100%; in data set [5] (500 ppm of active ingredient), 100%. Besides, the Eff. % in data set [6] was determined as 100%; in [15] it was 100%; in data set [7] it was 100%; in [13], 100%; in [8] it was 100%; in [9] (10 ppm of active ingredient), 88%. Moreover, the Eff. % in [14] came out at 80%. Moreover, the LogP in data set [11] is 1.76^[a].
Regarding `OC(Cc1ccnnc1Cl)(Cn1cncn1)C1(Cl)CC1` (stereo not shown) [Example I-45], the Eff. % in data set [1] (100 ppm of active ingredient) amounted to 97%; in [3] (100 ppm of active ingredient) it was 100%; in data set [4] (100 ppm of active ingredient), 100%; in [5] (100 ppm of active ingredient) it was 100%; in data set [6] it was 100%; in data set [15] it was 100%. For the same compound, the Eff. % in data set [7] came out at 100%; in [13], 100%; in data set [8] it was 88%; in data set [9] (10 ppm of active ingredient), 93%. Besides, the LogP in data set [11] was 1.31^[a].
Consider `OC(Cc1nccnc1I)(Cn1cncn1)C1(Cl)CC1` (stereo not shown) [Example I-54], for which the Eff. % worked out at 100% in [12] (500 ppm of active ingredient); 97% in [1] (500 ppm of active ingredient); 100% in [3] (500 ppm of active ingredient); 100% in data set [4] (500 ppm of active ingredient); 100% in [5] (500 ppm of active ingredient); 100% in data set [6]. The Eff. % in data set [7] is listed as 100%; in data set [13] it was 100%; in data set [9] (100 ppm of active ingredient), 99%; in data set [14], 78%; in [10], 89%. Besides, the LogP in [11] was 2.07^[a].
In the case of `CC(CF)(CF)C(O)(Cc1ccnc(Cl)c1F)Cn1cncn1` (stereo not shown) [Example I-61], the Eff. % is 99% in data set [12] (500 ppm of active ingredient); 98% in [1] (500 ppm of active ingredient); 93% in data set [2] (500 ppm of active ingredient); 100% in [3] (500 ppm of active ingredient); 100% in [4] (500 ppm of active ingredient); 100% in data set [5] (500 ppm of active ingredient). Also, the Eff. % was found to be 100% in data set [6]; 100% in [15]; 100% in data set [7]; 100% in data set [13]; 75% in data set [8]; 80% in data set [9] (10 ppm of active ingredient). The LogP in data set [11] is 1.87^[a].
